Here are results for 19 compounds from PubChem BioAssay AID330 (DTP/NCI, 2004).

For this assay, the system named is P388 leukemia ip, CD2F1 mice, survival T/C. The assay can be described thus: NCI In Vivo Anticancer Drug Screen. Data for tumor model P388 Leukemia (intraperitoneal) in CD2F1 (CDF1) mice. To be noted: endpoint: median survival time, higher = longer survival. On the procedure:
The antitumor activity of compounds was measured in mice bearing transplantable tumors. Survival or tumor size were measured and the results are expressed as the measurement made in the treated group (T) divided by the measurement made in the vehicle treated control group (C). The tumor model used in this assay is P388 Leukemia (intraperitoneal) in CD2F1 (CDF1) mice

Setting [1] is: dose: 50.0 mg/kg/injection, schedule: Q01DX009 (ip), vehicle: Klucel (hydroxypropylcellulose) (HPC).
[2] abbreviates: dose: 100.0 mg/kg/injection, schedule: Q01DX009 (ip), vehicle: Klucel (hydroxypropylcellulose) (HPC).
Where [3] appears, read: dose: 12.5 mg/kg/injection, schedule: Q01DX009 (ip), vehicle: saline.
Setting [4] is: dose: 25.0 mg/kg/injection, schedule: Q01DX009 (ip), vehicle: saline.
Where [5] appears, read: dose: 50.0 mg/kg/injection, schedule: Q01DX009 (ip), vehicle: saline.
Setting [6] is: dose: 200.0 mg/kg/injection, schedule: Q01DX009 (ip), vehicle: saline.
The mark [7] stands for this setting: dose: 25.0 mg/kg/injection, schedule: Q01DX009 (ip), vehicle: saline with Tween-80.
[8] abbreviates: dose: 50.0 mg/kg/injection, schedule: Q01DX009 (ip), vehicle: saline with Tween-80.
The mark [9] stands for this setting: dose: 100.0 mg/kg/injection, schedule: Q01DX009 (ip), vehicle: saline with Tween-80.
Setting [10] is: dose: 200.0 mg/kg/injection, schedule: Q01DX009 (ip), vehicle: saline with Tween-80.

The structures appear in SMILES notation. “And” between values parts separate entries of the source, which are not always exact repeats. Equal entries are not always repeated. Inconclusive results and toxic doses are left out.

As to `CCOc1ccc(C(CC(=O)O)CC(=O)N(CCCl)CCCl)cc1` (stereo not given), the T/C (dose: 100.0 mg/kg/injection, schedule: Q04DX003 (ip), vehicle: suspension in saline) was 101 % of control; the T/C (dose: 200.0 mg/kg/injection, schedule: Q04DX003 (ip), vehicle: suspension in saline) is 102 % of control; the T/C (dose: 400.0 mg/kg/injection, schedule: Q04DX003 (ip), vehicle: suspension in saline) was 105 % of control.
Regarding `Nc1c[nH]c2ccccc2c1=O`, the T/C under setting [1] was 104 % of control; the T/C under setting [2] is 101 % of control; the T/C (dose: 200.0 mg/kg/injection, schedule: Q01DX009 (ip), vehicle: Klucel (hydroxypropylcellulose) (HPC)) is 100 % of control.
As for `CC(C)[C@H]1OC(=O)C=C2[C@@]13O[C@@H]3[C@H]1OC(=O)[C@]3(C)C1[C@]2(C)CC[C@@H]3O` (stereo not given in full), the T/C was 101 % of control (dose: 1.0 mg/kg/injection, schedule: Q01DX009 (ip), vehicle: saline with Tween-80) and 105 % of control (dose: 40.0 mg/kg/injection, schedule: Q01DX009 (ip), vehicle: saline with Tween-80).
Regarding `CC(C)=CC(=O)OC1C2C(C)=CC(=O)C(O)C2(C)C2C3(O)OCC24C(CC(=O)OC14)C(C)C3O` (stereo not given), the T/C was 161 % of control (dose: 0.5 mg/kg/injection, schedule: Q01DX009 (ip), vehicle: distilled water + Tween-80); 169 % of control and 198 % of control (dose: 1.0 mg/kg/injection, schedule: Q01DX009 (ip), vehicle: distilled water + Tween-80); 180 % of control and 191 % of control (dose: 2.0 mg/kg/injection, schedule: Q01DX009 (ip), vehicle: distilled water + Tween-80).
In the case of `O=C1C=CC(=O)N1c1ccc2c(c1)oc(=O)c1ccccc12`, the T/C under setting [3] was 95 % of control; the T/C under setting [4] is 92 % of control; the T/C under setting [5] was 90 % of control; the T/C (dose: 100.0 mg/kg/injection, schedule: Q01DX009 (ip), vehicle: saline) is 100 % of control; the T/C under setting [6] was 99 % of control; the T/C (dose: 400.0 mg/kg/injection, schedule: Q01DX009 (ip), vehicle: saline) was 110 % of control.
As for `O=CNc1cccc(NC=O)c1`, the T/C is, setting by setting: (dose: 25.0 mg/kg/injection, schedule: Q01DX009 (ip), vehicle: distilled water + Tween-80) 111 % of control; (dose: 50.0 mg/kg/injection, schedule: Q01DX009 (ip), vehicle: distilled water + Tween-80) 100 % of control; (dose: 100.0 mg/kg/injection, schedule: Q01DX009 (ip), vehicle: distilled water + Tween-80) 100 % of control; (dose: 200.0 mg/kg/injection, schedule: Q01DX009 (ip), vehicle: distilled water + Tween-80) 100 % of control.
Turning to `O=C1C(Cl)=C(Nc2cccc3ccccc23)C(=O)c2ccccc21`, the T/C is, setting by setting: (dose: 6.25 mg/kg/injection, schedule: Q01DX005 (ip), vehicle: saline with Tween-80) 104 % of control; (dose: 12.5 mg/kg/injection, schedule: Q01DX005 (ip), vehicle: saline with Tween-80) 101 % of control; (dose: 25.0 mg/kg/injection, schedule: Q01DX005 (ip), vehicle: saline with Tween-80) 109 % of control; (dose: 50.0 mg/kg/injection, schedule: Q01DX005 (ip), vehicle: saline with Tween-80) 108 % of control.
Turning to `OCC(O)C(O)C(O)c1nnc2c3ccccc3c(-c3ccccc3)nn12` (stereo not given), the T/C (dose: 100.0 mg/kg/injection, schedule: Q01DX001 (ip), vehicle: saline with Tween-80) is 89 % of control; the T/C (dose: 100.0 mg/kg/injection, schedule: Q04DX002 (ip), vehicle: saline with Tween-80) is 91 % of control; the T/C (dose: 200.0 mg/kg/injection, schedule: Q01DX001 (ip), vehicle: saline with Tween-80) is 90 % of control; the T/C (dose: 200.0 mg/kg/injection, schedule: Q04DX002 (ip), vehicle: saline with Tween-80) was 90 % of control; the T/C (dose: 400.0 mg/kg/injection, schedule: Q01DX001 (ip), vehicle: saline with Tween-80) was 88 % of control; the T/C (dose: 400.0 mg/kg/injection, schedule: Q04DX002 (ip), vehicle: saline with Tween-80) is 93 % of control.
For the compound `Cc1ccc(S(=O)(=O)NN=C2C(C)C(c3ccccc3)NC(c3ccccc3)C2C)cc1` (stereo not given), under “dose: 200.0 mg/kg/injection, schedule: Q01DX001 (ip), vehicle: Klucel (hydroxypropylcellulose) (HPC)”, the T/C was 88 % of control.
In the case of `CCOC(=O)[C]1([Bi]([CH3])[CH3])N=NC(C(=O)OC)=C1C(=O)OC` (stereo not given), the T/C (dose: 25.0 mg/kg/injection, schedule: Q04DX003 (ip), vehicle: saline) was 93 % of control; the T/C (dose: 50.0 mg/kg/injection, schedule: Q04DX003 (ip), vehicle: saline) is 97 % of control; the T/C (dose: 100.0 mg/kg/injection, schedule: Q04DX003 (ip), vehicle: saline with Tween-80) is 99 % of control.
In the case of `Nc1nc2nn(-c3ccc(C(=O)NC(CCC(=O)O)C(=O)O)cc3)nc2c(=O)[nH]1` (stereo not given), the T/C (dose: 12.5 mg/kg/injection, schedule: Q01DX009 (ip), vehicle: Klucel (hydroxypropylcellulose) (HPC)) is 95 % of control; the T/C (dose: 25.0 mg/kg/injection, schedule: Q01DX009 (ip), vehicle: Klucel (hydroxypropylcellulose) (HPC)) was 94 % of control; the T/C under setting [1] is 94 % of control; the T/C under setting [2] is 96 % of control.
As to `COc1cc2cc(c1Cl)N(C)C(=O)CC(OC(=O)CC(C)C)C1(C)OC1C(C)C1CC(O)(NC(=O)O1)C(OC)/C=C/C=C(C)C2` (stereo not given), the T/C is, setting by setting: (dose: 6.2 micrograms/kg/injection, schedule: Q01DX009 (ip), vehicle: saline + alcohol) 113 % of control; (dose: 6.25 micrograms/kg/injection, schedule: Q01DX009 (ip), vehicle: saline + alcohol) 111 % of control and 120 % of control; (dose: 100.0 micrograms/kg/injection, schedule: Q01DX009 (ip), vehicle: saline + alcohol) 106 % of control.
Turning to `Oc1ccccc1C=NCc1ccccc1`, the T/C is 107 % of control under setting [7], 119 % of control under setting [8], 114 % of control under setting [9] and 114 % of control under setting [10].
As to `CN(C)N1C(=O)C2C3C=CC(O3)C2C1=O` (stereo not given), the T/C by setting is: (dose: 50.0 mg/kg/injection, schedule: Q01DX005 (ip), vehicle: saline) 104 % of control; (dose: 100.0 mg/kg/injection, schedule: Q01DX005 (ip), vehicle: saline) 109 % of control; (dose: 200.0 mg/kg/injection, schedule: Q01DX005 (ip), vehicle: saline) 100 % of control.
For the compound `CC(/C=C/c1ccco1)=N\O`, the T/C was 104 % of control (dose: 12.5 mg/kg/injection, schedule: Q01DX009 (ip), vehicle: other); 100 % of control (dose: 25.0 mg/kg/injection, schedule: Q01DX009 (ip), vehicle: other); 91 % of control (dose: 50.0 mg/kg/injection, schedule: Q01DX009 (ip), vehicle: other).
On to `CCOC(CNc1cnc(NC(C)=O)[nH]c1=O)OCC`, for which the T/C runs as follows: under setting [7], 102 % of control; under setting [8], 104 % of control; under setting [9], 102 % of control; under setting [10], 112 % of control.
On to `O=[N+]([O-])C1CCCCCCCCCCC1`, for which the T/C was 100 % of control (dose: 100.0 mg/kg/injection, schedule: Q01DX001 (ip), vehicle: other); 100 % of control (dose: 200.0 mg/kg/injection, schedule: Q01DX001 (ip), vehicle: other); 108 % of control (dose: 400.0 mg/kg/injection, schedule: Q01DX001 (ip), vehicle: other).
For the compound `C=CCNC(=S)NCCN(CCO)C(=S)NCC=C`, the T/C is 105 % of control under setting [3]; 104 % of control under setting [4]; 104 % of control and 93 % of control under setting [5]; 98 % of control under setting [6].
Regarding `O=C(Nc1ccc(Cl)c(Cl)c1)Oc1cccnc1`, the T/C was 100 % of control under setting [8] and 105 % of control under setting [9].
